Experimental data reported in US11471502B2, “Neuroprotective peptide” (UNIVERSITY COLLEGE CARDIFF C[…], priority 2017, dated 2022).
Entries after “also recorded” stand apart in the source; their conditions may differ.

Tested on: HdhQ111 mice
Test: HdhQ111 genetic mouse model of Huntington's disease
Type: in vivo
Experimental: WT and HdhQ111 mice were treated with CPP-RB5 or Scramble (CPP-SCR) peptides (20 mg/kg i.p.) for 8 days.
Two-way ANOVA Bonferroni post-hoc comparison ***p<0.001.
HdhQ111 heterozygous mice (Jax®, Bar Harbour, Me., U.S.A.), zQ175 knock-in heterozygous (mix sex) carrying between 180 and 195 CAG repeats (CHDI-81003003, Psychogenics, Inc. Tarrytown, N.Y.) and Tg2576 transgenic male mice (C57BL6 and SLJ mix background, Taconic Biosciences) were used for IHC, IF and behavioural test.
We also evaluated the potential neuroprotective effect of RB5, in hdhQ111 transgenic mice, a late onset genetic model of Huntington's Disease. hdhQ111 mice were treated (20 mg/kg, i.p., twice a day) for 7 days (FIG. 5).

SMILES: CSCC[C@H](NC(=O)[C@H](CCC(=O)O)NC(=O)[C@@H](NC(=O)[C@H](CCC(=O)O)NC(=O)CNC(=O)[C@@H]1CCCN1C(=O)[C@@H](NC(=O)CNC(=O)[C@@H]1CCCN1C(=O)CNC(=O)[C@@H](NC(=O)CNC(=O)[C@H](CCC(=O)O)NC(=O)[C@@H](NC(=O)[C@H](CCCNC(=N)N)NC(=O)[C@H](CCCNC(=N)N)NC(=O)[C@@H]1CCCN1C(=O)[C@H](CCC(=O)O)NC(=O)CNC(=O)CNC(=O)CNC(=O)CNC(=O)CNC(=O)[C@H](CCC(N)=O)NC(=O)[C@@H]1CCCN1C(=O)[C@@H]1CCCN1C(=O)[C@H](CCCNC(=N)N)NC(=O)[C@H](CCCNC(=N)N)NC(=O)[C@H](CCCNC(=N)N)NC(=O)[C@H](CCC(N)=O)NC(=O)[C@H](CCCNC(=N)N)NC(=O)[C@H](CCCNC(=N)N)NC(=O)[C@H](CCCCN)NC(=O)[C@H](CCCCN)NC(=O)[C@H](CCCNC(=N)N)NC(=O)CNC(C)=O)[C@@H](C)O)C(C)C)C(C)C)C(C)C)C(=O)N[C@H](C(=O)N[C@@H](CCCCN)C(=O)NCC(=O)N[C@@H](CCC(N)=O)C(=O)N1CCC[C@H]1C(=O)N[C@@H](Cc1ccccc1)C(=O)N[C@@H](CC(=O)O)C(=O)N[C@@H](C(=O)O)C(C)C)C(C)C [RB5]
- degeneration in the hdhQ111 mutants (20 mg/kg i.p. twice a day, 7 days): prevents degeneration
- ERK activation (pERK) in striatum (20 mg/kg i.p., 8 days): elevated pERK in WT and mutant striata; also recorded: significant enhancement of ERK activation
- apoptotic cells (TUNEL, dorsal striatum) (HdhQ111 mice, 20 mg/kg i.p., vs Scramble): significant reduction of apoptotic cells
- pre-apoptotic state (Cleaved Caspase-3) (hdhQ111 mice, 20 mg/kg i.p.): significant reduction of pre-apoptotic state
